Data from the supplement of paper PMC10307832.

Columns and labels:
Test in all cases: relative viability (nuclei count vs DMSO), 5 days (fraction); higher = more cells survive
NCI-H2228 = test system: NCI-H2228
How it was run: (§1)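 Cells from lung cancer lines were seeded into 1536-well plates and, one day later, dosed by pin tool. Treatments were either a single drug or a fixed dose of an anchor drug with five library-drug doses (not always all listed) in √10 steps. After 5 days, nuclei were stained in a one-step fixation (final 0.05% Triton X-100, 1% formaldehyde, 1 ug/ml Hoechst) and counted on 4× images, and relative viability is the treated-to-vehicle nuclei ratio, as the median of duplicate plates.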

EMC-BAC-2 = test system: EMC-BAC-2
How it was run: as §1

NCI-H1944 = test system: NCI-H1944
How it was run: as §1

A-427 = test system: A-427
How it was run: as §1

NCI-H2170 = test system: NCI-H2170
How it was run: as §1

NCI-H2009 = test system: NCI-H2009
How it was run: as §1

PC-3 [JPC-3] = test system: PC-3 [JPC-3]
How it was run: as §1

NCI-H596 = test system: NCI-H596
How it was run: as §1

HOP-62 = test system: HOP-62
How it was run: as §1

NCI-H1792 = test system: NCI-H1792
How it was run: as §1

LK-2 = test system: LK-2
How it was run: as §1

HARA = test system: HARA
How it was run: as §1

LXF-289 = test system: LXF-289
How it was run: as §1

NCI-H322M = test system: NCI-H322M
How it was run: as §1

NCI-H3122 = test system: NCI-H3122
How it was run: as §1

ABC-1 = test system: ABC-1
How it was run: as §1

SK-MES-1 = test system: SK-MES-1
How it was run: as §1

NCI-H727 = test system: NCI-H727
How it was run: as §1

NCI-H1993 = test system: NCI-H1993
How it was run: as §1

SW 1573 = test system: SW 1573
How it was run: as §1

Structure (SMILES): O=c1cc(-c2cccc3c2Sc2ccccc2S3)oc(N2CCOCC2)c1 + Cc1nc(NC(=O)N2CCC[C@H]2C(N)=O)sc1-c1ccnc(C(C)(C)C(F)(F)F)c1 [Alpelisib] (partner 2 µM)
- relative viability (NCI-H2228; first compound 0.08 µM): 0.75
- relative viability (NCI-H2228; first compound 0.253 µM): 0.846
- relative viability (NCI-H2228; first compound 0.8 µM): 0.828
- relative viability (NCI-H2228; first compound 2.53 µM): 0.561
- relative viability (NCI-H2228; first compound 8 µM): 0.737
- relative viability (EMC-BAC-2; first compound 0.08 µM): 0.755
- relative viability (EMC-BAC-2; first compound 0.253 µM): 0.799
- relative viability (EMC-BAC-2; first compound 0.8 µM): 0.815
- relative viability (EMC-BAC-2; first compound 2.53 µM): 0.71
- relative viability (EMC-BAC-2; first compound 8 µM): 0.856
- relative viability (NCI-H1944; first compound 0.08 µM): 0.793
- relative viability (NCI-H1944; first compound 0.253 µM): 0.939
- relative viability (NCI-H1944; first compound 0.8 µM): 0.736
- relative viability (NCI-H1944; first compound 8 µM): 0.751
- relative viability (A-427; first compound 0.08 µM): 1.04
- relative viability (A-427; first compound 0.253 µM): 1.04
- relative viability (A-427; first compound 0.8 µM): 1.14
- relative viability (A-427; first compound 2.53 µM): 0.987
- relative viability (A-427; first compound 8 µM): 1.05
- relative viability (NCI-H2170; first compound 0.08 µM): 0.791
- relative viability (NCI-H2170; first compound 0.253 µM): 0.835
- relative viability (NCI-H2170; first compound 0.8 µM): 0.933
- relative viability (NCI-H2170; first compound 2.53 µM): 0.747
- relative viability (NCI-H2170; first compound 8 µM): 0.841
- relative viability (NCI-H2009; first compound 0.08 µM): 1.18
- relative viability (NCI-H2009; first compound 0.253 µM): 1.27
- relative viability (NCI-H2009; first compound 0.8 µM): 1.18
- relative viability (NCI-H2009; first compound 2.53 µM): 1.14
- relative viability (NCI-H2009; first compound 8 µM): 0.811
- relative viability (PC-3 [JPC-3]; first compound 0.08 µM): 0.994
- relative viability (PC-3 [JPC-3]; first compound 0.253 µM): 1.04
- relative viability (PC-3 [JPC-3]; first compound 0.8 µM): 1.07
- relative viability (PC-3 [JPC-3]; first compound 2.53 µM): 0.958
- relative viability (PC-3 [JPC-3]; first compound 8 µM): 1.03
- relative viability (NCI-H596; first compound 0.08 µM): 0.588
- relative viability (NCI-H596; first compound 0.253 µM): 0.55
- relative viability (NCI-H596; first compound 0.8 µM): 0.5
- relative viability (NCI-H596; first compound 2.53 µM): 0.469
- relative viability (NCI-H596; first compound 8 µM): 0.594
- relative viability (HOP-62; first compound 0.08 µM): 0.962
- relative viability (HOP-62; first compound 0.253 µM): 0.85
- relative viability (HOP-62; first compound 0.8 µM): 1.01
- relative viability (HOP-62; first compound 2.53 µM): 0.908
- relative viability (HOP-62; first compound 8 µM): 1.18
- relative viability (NCI-H1792; first compound 0.253 µM): 0.722
- relative viability (NCI-H1792; first compound 0.8 µM): 0.741
- relative viability (NCI-H1792; first compound 2.53 µM): 0.674
- relative viability (NCI-H1792; first compound 8 µM): 0.712
- relative viability (LK-2; first compound 0.08 µM): 1.22
- relative viability (LK-2; first compound 0.253 µM): 1.11
- relative viability (LK-2; first compound 0.8 µM): 1.49
- relative viability (LK-2; first compound 2.53 µM): 0.995
- relative viability (LK-2; first compound 8 µM): 1.75
- relative viability (HARA; first compound 0.08 µM): 0.754
- relative viability (HARA; first compound 0.253 µM): 0.748
- relative viability (HARA; first compound 0.8 µM): 0.719
- relative viability (HARA; first compound 2.53 µM): 0.81
- relative viability (HARA; first compound 8 µM): 0.584
- relative viability (LXF-289; first compound 0.08 µM): 1.1
- relative viability (LXF-289; first compound 0.253 µM): 1.07
- relative viability (LXF-289; first compound 0.8 µM): 1.14
- relative viability (LXF-289; first compound 2.53 µM): 1.01
- relative viability (LXF-289; first compound 8 µM): 1.07
- relative viability (NCI-H322M; first compound 0.08 µM): 0.784
- relative viability (NCI-H322M; first compound 0.253 µM): 0.79
- relative viability (NCI-H322M; first compound 0.8 µM): 0.79
- relative viability (NCI-H322M; first compound 2.53 µM): 0.964
- relative viability (NCI-H322M; first compound 8 µM): 0.838
- relative viability (NCI-H3122; first compound 0.08 µM): 0.731
- relative viability (NCI-H3122; first compound 0.253 µM): 0.902
- relative viability (NCI-H3122; first compound 0.8 µM): 0.796
- relative viability (NCI-H3122; first compound 2.53 µM): 0.746
- relative viability (NCI-H3122; first compound 8 µM): 0.881
- relative viability (ABC-1; first compound 0.08 µM): 1.17
- relative viability (ABC-1; first compound 0.253 µM): 1.14
- relative viability (ABC-1; first compound 0.8 µM): 1.16
- relative viability (ABC-1; first compound 2.53 µM): 0.901
- relative viability (ABC-1; first compound 8 µM): 0.953
- relative viability (SK-MES-1; first compound 0.08 µM): 0.864
- relative viability (SK-MES-1; first compound 0.253 µM): 1.09
- relative viability (SK-MES-1; first compound 0.8 µM): 0.993
- relative viability (SK-MES-1; first compound 2.53 µM): 0.824
- relative viability (SK-MES-1; first compound 8 µM): 0.845
- relative viability (NCI-H727; first compound 0.253 µM): 0.553
- relative viability (NCI-H727; first compound 2.53 µM): 0.47
- relative viability (NCI-H727; first compound 8 µM): 0.761
- relative viability (NCI-H1993; first compound 0.08 µM): 0.735
- relative viability (NCI-H1993; first compound 0.253 µM): 0.687
- relative viability (NCI-H1993; first compound 0.8 µM): 0.69
- relative viability (NCI-H1993; first compound 2.53 µM): 0.68
- relative viability (NCI-H1993; first compound 8 µM): 0.718
- relative viability (SW 1573; first compound 0.08 µM): 0.719
- relative viability (SW 1573; first compound 0.253 µM): 0.785
- relative viability (SW 1573; first compound 0.8 µM): 0.667
- relative viability (SW 1573; first compound 2.53 µM): 0.803
- relative viability (SW 1573; first compound 8 µM): 0.657
